Calls of active or inactive are those of the source.
How the values were obtained:
[1] = Counterscreen for antagonists of the human trace amine associated receptor 1 (hTAAR1): Fluorescence-based cell-based high throughput dose response assay to identify nonselective Ga16 antagonists.; type: functional
[2] = Counterscreen for […] of the human trace amine associated receptor 1 (TAAR1): Fluorescence-based cell-based high throughput dose response assay to identify nonselective Ga16 agonists.; type: functional
[3] = biological target: T1, Sentrin-specific protease 8 (Homo sapiens, UniProt Q96LD8); type: functional
T1 sequence (Q96LD8 whole entry): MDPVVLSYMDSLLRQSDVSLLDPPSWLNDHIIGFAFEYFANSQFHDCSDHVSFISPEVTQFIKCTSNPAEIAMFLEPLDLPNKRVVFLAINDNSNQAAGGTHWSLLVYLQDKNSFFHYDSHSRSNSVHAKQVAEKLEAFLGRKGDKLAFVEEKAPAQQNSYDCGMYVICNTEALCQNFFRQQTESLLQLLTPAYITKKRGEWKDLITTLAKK

[4] = biological target: T1, Sentrin-specific protease 8; type: functional; remark: listed apart in the source
[5] = biological target: T2, Replicative DNA helicase DnaB (Mycobacterium tuberculosis, UniProt P9WMR3); test: DnaB intein splicing inhibitors, dose response, biochemical, cell-free fluorescence (AID 449749); type: functional
T2 sequence (P9WMR3 whole entry): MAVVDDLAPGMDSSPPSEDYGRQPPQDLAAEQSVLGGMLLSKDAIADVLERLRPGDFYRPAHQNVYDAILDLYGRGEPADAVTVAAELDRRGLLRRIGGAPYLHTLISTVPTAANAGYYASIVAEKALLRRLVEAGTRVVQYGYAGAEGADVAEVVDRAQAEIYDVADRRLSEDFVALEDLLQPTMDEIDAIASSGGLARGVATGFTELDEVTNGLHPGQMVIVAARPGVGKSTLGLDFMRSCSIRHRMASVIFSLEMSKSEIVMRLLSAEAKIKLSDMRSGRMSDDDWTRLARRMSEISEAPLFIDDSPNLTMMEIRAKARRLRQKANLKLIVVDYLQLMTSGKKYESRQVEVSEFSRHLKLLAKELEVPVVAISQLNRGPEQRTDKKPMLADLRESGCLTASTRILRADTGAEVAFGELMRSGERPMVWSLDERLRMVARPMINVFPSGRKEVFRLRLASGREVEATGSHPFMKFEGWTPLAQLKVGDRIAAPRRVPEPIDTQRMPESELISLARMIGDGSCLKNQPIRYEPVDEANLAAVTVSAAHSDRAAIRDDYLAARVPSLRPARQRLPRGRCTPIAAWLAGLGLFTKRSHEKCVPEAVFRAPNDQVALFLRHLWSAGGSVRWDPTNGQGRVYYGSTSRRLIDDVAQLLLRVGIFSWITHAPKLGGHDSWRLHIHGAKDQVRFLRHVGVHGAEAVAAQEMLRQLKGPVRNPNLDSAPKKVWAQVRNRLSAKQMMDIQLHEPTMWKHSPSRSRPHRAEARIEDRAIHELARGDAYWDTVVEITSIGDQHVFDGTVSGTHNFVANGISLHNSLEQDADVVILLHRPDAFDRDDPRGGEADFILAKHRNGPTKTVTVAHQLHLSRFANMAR

[6] = biological target: T3, Protein RecA (Mycobacterium tuberculosis, UniProt P9WHJ3); test: Fluorescence Cell-Free Homogeneous Dose Retest to Identify Inhibitors of RecA-Intein Splicing Activity. [Related pubchem assays (depositor defined):AID2097, AID2223, AID489010, AID492950]; type: functional
T3 sequence (P9WHJ3 whole entry): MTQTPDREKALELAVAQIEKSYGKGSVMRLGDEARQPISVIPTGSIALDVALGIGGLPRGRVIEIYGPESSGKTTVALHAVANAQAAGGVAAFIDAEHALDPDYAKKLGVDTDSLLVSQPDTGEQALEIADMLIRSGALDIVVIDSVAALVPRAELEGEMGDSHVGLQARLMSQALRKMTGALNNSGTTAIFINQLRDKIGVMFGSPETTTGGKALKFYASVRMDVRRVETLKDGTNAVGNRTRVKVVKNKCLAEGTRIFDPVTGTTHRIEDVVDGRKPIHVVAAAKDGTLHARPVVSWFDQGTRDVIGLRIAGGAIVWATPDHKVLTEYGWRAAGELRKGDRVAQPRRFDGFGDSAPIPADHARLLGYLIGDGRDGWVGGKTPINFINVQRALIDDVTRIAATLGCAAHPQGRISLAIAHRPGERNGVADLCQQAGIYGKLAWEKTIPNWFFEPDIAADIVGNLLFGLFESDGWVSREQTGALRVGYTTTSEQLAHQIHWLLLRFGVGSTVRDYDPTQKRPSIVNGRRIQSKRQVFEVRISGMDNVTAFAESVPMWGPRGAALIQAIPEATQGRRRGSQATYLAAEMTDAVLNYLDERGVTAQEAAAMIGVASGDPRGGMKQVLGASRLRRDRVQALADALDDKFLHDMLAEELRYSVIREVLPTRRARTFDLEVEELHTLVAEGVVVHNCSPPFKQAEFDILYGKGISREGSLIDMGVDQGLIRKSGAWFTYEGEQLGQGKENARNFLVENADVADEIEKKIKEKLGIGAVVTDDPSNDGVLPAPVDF

[7] = biological target: T4, Sentrin-specific protease 1 (Homo sapiens, UniProt Q9P0U3); test: SENP1 catalytic domain blockers, concentration series – biochemical, kinetic FRET, dose response (AID 651697); type: functional; conditions: read-out: IC50_Mean
T4 sequence (Q9P0U3 whole entry, the tested form may be a part): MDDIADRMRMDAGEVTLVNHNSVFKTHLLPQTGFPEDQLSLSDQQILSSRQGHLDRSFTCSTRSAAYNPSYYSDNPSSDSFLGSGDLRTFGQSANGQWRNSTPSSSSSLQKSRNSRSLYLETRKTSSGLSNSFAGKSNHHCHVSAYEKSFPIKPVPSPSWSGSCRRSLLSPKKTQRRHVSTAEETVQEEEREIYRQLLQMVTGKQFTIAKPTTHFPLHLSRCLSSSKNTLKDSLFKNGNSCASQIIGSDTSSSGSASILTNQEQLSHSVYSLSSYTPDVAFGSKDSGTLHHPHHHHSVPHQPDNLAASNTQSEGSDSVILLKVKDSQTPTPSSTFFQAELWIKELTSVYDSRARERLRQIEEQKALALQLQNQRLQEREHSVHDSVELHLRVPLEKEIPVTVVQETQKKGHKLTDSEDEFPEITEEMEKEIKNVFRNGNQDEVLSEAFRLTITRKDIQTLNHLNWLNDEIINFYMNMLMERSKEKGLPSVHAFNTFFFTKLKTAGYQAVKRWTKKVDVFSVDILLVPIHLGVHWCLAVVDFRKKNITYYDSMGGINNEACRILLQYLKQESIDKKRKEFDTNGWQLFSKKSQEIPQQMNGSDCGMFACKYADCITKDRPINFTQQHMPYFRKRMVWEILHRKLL

[8] = biological target: T4, Sentrin-specific protease 1; test: Dose response confirmation of small molecule inhibitors of the catalytic domain of the SUMO protease, SENP1 in a FRET assay.; type: functional; conditions: read-out: IC50_Mean
[9] = biological target: Matrix metalloproteinase-14 (Homo sapiens, UniProt P50281); test: Dose Response confirmation of uHTS hits for a small molecule inhibitors of MT1-MMP activation in a fluorescence assay set 1.; type: functional
[10] = biological target: Neurotensin receptor type 1 (Homo sapiens, UniProt P30989); type: functional;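 note: Image-based confirmatory dose-response assay measuring agonist activity at NTR1; NTR1-expressing U2OS osteosarcoma cells imaged for beta-arrestin GFP spot formation; agonist potency where compounds increase beta-arrestin recruitment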
Neurotensin receptor type 1, sequence (P30989 whole entry): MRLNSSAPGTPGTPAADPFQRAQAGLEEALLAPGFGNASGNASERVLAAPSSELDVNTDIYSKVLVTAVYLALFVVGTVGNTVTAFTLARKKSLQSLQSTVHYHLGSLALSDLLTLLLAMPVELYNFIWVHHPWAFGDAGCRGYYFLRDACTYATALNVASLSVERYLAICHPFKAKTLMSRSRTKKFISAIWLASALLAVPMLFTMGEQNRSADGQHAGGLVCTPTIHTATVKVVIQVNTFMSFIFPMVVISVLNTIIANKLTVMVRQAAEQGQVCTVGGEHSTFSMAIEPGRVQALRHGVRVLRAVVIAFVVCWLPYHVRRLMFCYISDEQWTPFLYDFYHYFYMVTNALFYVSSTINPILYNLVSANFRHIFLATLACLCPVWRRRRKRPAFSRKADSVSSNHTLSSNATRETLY

[11] = test system: BJ; test: cells; type: functional, cell-based; conditions: Homo sapiens
[12] = biological target: T5, Zinc finger protein mex-5 (Caenorhabditis elegans, UniProt Q9XUB2); test: potency of MEX-5 RNA-binding blockers – biochemical, C. elegans, fluorescence polarization, dose response (AID 1960)
T5 sequence (Q9XUB2 whole entry): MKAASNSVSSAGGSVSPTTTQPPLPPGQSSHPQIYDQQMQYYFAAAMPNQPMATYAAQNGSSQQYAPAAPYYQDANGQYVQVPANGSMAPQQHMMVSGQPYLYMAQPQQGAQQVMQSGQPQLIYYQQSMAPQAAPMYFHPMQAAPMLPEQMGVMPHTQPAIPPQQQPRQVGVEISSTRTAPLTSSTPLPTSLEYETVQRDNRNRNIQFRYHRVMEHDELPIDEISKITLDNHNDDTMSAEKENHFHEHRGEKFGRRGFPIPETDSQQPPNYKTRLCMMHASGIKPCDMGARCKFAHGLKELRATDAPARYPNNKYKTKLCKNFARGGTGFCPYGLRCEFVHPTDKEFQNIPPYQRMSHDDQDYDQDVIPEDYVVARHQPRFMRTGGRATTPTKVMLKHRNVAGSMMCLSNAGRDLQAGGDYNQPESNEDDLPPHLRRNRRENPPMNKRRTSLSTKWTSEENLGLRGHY

[13] = biological target: T6, RNA-binding protein pos-1 (Caenorhabditis elegans, UniProt G5EF15); test: disruptors of C. elegans POS-1 RNA interaction – biochemical, fluorescence polarization, dose response (AID 1964);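 note: purified POS-1 fused to maltose binding protein made in E. coli; potency of compounds blocking POS-1 binding to fluorescent RNA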
T6 sequence (G5EF15 whole entry): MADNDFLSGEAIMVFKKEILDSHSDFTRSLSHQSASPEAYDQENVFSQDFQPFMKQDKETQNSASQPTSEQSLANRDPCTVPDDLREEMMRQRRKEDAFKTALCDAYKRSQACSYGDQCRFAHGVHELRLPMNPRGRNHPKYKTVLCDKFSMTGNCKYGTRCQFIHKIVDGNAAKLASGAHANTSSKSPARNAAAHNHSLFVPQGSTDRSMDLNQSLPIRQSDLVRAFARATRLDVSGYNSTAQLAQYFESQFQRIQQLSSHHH

[14] = DRD fibroblast viability loss – cell-based, non-viral oncogenic, luminescence, dose response (AID 1934); type: functional; conditions: Homo sapiens
[15] = biological target: ADP-ribosylation factor GTPase-activating protein 1 (Rattus norvegicus, UniProt Q62848); test: Fluorescence polarization-based biochemical high throughput dose response screening assay to identify inhibitors of ADP-ribosylation factor GTPase activating protein 1 (ARFGAP1).; type: functional
ADP-ribosylation factor GTPase-activating protein 1, sequence (Q62848 whole entry): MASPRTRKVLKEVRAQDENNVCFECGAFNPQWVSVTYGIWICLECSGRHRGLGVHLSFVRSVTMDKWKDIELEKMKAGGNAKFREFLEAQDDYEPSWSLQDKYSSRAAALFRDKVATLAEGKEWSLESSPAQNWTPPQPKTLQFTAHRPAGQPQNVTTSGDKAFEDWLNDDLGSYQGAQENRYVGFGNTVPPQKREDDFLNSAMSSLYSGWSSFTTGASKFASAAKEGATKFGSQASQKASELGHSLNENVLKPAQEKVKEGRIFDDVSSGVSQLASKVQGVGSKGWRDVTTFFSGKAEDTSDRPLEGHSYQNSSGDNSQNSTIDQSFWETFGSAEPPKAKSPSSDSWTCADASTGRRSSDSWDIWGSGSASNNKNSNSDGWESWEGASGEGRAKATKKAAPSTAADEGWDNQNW

[16] = test system: BJ; test: BJ-TERT-LT-ST fibroblast viability loss – cell-based, RAS-independent, luminescence, dose response (AID 1935); type: functional; conditions: Homo sapiens;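 note: BJ fibroblasts immortalized with TERT plus LT and ST oncogenes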
[17] = test system: BJ; test: BJ-TERT fibroblast viability loss – cell-based, RAS-independent, luminescence, dose response (AID 1933); type: functional; conditions: Homo sapiens
[18] = biological target: Hepatocyte nuclear factor 4-alpha (Homo sapiens, UniProt P41235); type: functional, cell-based;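 note: biochemical luminescence-based dose-response counterscreen measuring inhibition of HNF4 dimerization, run alongside a screen for blockers of ABHD5–perilipin-5 interaction; split luciferase complementation of HNF4 fusion proteins in cell lysate measuring dimerization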
Hepatocyte nuclear factor 4-alpha, sequence (P41235 whole entry, the tested form may be a part): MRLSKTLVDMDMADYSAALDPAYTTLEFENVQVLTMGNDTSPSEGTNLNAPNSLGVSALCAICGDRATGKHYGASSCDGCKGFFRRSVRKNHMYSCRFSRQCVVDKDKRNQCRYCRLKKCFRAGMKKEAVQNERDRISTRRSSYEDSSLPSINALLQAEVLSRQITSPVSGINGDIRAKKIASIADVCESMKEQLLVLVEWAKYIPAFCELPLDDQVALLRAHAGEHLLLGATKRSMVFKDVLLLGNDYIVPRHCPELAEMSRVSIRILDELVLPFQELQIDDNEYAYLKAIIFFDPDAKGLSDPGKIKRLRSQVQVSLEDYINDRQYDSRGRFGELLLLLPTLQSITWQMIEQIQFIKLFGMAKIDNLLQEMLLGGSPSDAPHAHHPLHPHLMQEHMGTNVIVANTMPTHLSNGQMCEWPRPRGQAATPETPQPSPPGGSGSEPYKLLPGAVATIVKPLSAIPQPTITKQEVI

[19] = biological target: T7, ATP-dependent translocase ABCB1 (Homo sapiens, UniProt P08183); test: inhibition of BCRP-mediated JC-1 efflux – Ig-MXP3 cells, flow cytometry, set 2, dose response (AID 504566); type: functional; conditions: read-out: EC50_MICROM_;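 note: flow cytometry median green fluorescence of retained JC-1 dye; potency of efflux pump inhibition measured as rising substrate retention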
T7 sequence (P08183 whole entry): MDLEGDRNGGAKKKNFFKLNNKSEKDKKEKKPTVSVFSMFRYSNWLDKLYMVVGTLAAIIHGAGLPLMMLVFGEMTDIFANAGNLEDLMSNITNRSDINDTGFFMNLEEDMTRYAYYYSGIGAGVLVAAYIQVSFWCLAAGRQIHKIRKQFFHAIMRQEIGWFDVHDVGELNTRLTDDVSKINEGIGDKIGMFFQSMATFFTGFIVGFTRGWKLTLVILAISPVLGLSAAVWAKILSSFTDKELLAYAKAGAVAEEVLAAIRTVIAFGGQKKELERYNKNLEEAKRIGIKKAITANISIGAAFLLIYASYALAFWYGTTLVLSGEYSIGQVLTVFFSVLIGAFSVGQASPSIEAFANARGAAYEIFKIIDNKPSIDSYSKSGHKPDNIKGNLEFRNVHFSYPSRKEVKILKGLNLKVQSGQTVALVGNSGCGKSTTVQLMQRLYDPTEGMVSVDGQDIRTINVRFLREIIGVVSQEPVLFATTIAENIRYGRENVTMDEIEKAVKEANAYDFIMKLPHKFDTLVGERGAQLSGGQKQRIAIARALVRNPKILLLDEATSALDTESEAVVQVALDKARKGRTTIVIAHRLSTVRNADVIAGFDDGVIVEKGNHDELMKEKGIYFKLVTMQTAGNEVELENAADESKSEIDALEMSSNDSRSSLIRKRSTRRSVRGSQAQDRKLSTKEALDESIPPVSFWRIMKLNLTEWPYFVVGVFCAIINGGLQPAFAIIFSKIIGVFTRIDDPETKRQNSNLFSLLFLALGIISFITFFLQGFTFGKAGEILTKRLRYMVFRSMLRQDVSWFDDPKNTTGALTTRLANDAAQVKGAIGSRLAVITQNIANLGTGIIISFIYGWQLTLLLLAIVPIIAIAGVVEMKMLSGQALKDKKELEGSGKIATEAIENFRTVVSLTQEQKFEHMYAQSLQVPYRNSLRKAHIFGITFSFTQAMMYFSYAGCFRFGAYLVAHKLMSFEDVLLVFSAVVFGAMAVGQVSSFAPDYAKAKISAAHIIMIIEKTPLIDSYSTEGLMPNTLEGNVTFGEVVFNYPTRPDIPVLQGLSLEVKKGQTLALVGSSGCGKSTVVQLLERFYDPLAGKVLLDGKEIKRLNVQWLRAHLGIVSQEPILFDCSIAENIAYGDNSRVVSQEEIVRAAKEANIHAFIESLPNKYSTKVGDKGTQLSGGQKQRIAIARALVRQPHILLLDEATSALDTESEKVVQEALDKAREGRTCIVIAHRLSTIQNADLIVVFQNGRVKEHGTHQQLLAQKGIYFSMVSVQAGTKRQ

[20] = biological target: T7, ATP-dependent translocase ABCB1; test: P-gp JC-1 efflux blockade concentration-response – Jurkat-DNR cells, flow cytometry, set 2, dose response (AID 504569); type: functional; conditions: read-out: EC50_MICROM_;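 note: potency of pump inhibitors that raise cellular JC-1 green fluorescence up to the nicardipine level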
[21] = biological target: Photoreceptor-specific nuclear receptor (Homo sapiens, UniProt Q9Y5X4); type: functional, cell-based;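 note: CHO-S cells with Gal4-NCOR and VP16-NR2E3 two-hybrid luciferase reporter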
Photoreceptor-specific nuclear receptor, sequence (Q9Y5X4 whole entry, the tested form may be a part): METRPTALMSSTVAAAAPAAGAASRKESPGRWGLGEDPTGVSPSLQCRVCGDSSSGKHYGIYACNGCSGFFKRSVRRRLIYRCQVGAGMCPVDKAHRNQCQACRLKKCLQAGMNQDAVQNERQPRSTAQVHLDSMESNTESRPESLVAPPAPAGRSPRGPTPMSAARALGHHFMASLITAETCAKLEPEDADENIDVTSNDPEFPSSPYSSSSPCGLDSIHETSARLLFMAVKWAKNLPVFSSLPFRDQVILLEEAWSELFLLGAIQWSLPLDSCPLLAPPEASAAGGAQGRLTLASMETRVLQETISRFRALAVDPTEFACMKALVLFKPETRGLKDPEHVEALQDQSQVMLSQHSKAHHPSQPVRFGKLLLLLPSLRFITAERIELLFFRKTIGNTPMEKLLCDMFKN

[22] = test system: BHK-21; test: viability loss in BHK-21 cells – cell-based, plate reader, cherry-pick samples, cytotoxicity control, dose response (AID 687030); type: functional; conditions: Mesocricetus auratus
[23] = biological target: Nuclear receptor subfamily 0 group B member 1 (Homo sapiens, UniProt P51843); type: functional, cell-based;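 note: HEK293T cells transfected with SF-1 and DAX-1 plus StAR promoter luciferase reporter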
Nuclear receptor subfamily 0 group B member 1, sequence (P51843 whole entry): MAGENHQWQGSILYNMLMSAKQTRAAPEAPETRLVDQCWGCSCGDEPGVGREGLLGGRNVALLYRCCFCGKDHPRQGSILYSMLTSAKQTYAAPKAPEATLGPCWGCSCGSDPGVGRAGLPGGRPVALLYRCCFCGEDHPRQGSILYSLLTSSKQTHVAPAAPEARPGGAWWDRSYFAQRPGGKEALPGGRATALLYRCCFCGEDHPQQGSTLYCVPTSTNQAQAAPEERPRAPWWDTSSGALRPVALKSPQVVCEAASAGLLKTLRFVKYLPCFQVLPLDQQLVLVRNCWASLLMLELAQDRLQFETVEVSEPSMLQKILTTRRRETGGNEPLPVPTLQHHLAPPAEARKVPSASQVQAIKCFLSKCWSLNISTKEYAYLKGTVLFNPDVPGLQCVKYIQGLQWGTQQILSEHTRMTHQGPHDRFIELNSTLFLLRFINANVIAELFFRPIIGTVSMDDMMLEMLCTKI

[24] = cells; type: functional, cell-based
[25] = T. cruzi growth inhibition in host cells, dose response, cell-based, plate reader, dry powder, set 2 (AID 652275); type: functional
[26] = microbe, parasite or virus in culture; type: functional; conditions: Mycobacterium tuberculosis
[27] = biological target: Heat shock protein HSP 90-alpha (Homo sapiens, UniProt P07900); type: functional, organism-based
[28] = biological target: T8, Aryl hydrocarbon receptor (Homo sapiens, UniProt P35869); conditions: Potency;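 note: confirmatory quantitative high-throughput screen measuring activation of the AhR signaling pathway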
T8 sequence (P35869 whole entry): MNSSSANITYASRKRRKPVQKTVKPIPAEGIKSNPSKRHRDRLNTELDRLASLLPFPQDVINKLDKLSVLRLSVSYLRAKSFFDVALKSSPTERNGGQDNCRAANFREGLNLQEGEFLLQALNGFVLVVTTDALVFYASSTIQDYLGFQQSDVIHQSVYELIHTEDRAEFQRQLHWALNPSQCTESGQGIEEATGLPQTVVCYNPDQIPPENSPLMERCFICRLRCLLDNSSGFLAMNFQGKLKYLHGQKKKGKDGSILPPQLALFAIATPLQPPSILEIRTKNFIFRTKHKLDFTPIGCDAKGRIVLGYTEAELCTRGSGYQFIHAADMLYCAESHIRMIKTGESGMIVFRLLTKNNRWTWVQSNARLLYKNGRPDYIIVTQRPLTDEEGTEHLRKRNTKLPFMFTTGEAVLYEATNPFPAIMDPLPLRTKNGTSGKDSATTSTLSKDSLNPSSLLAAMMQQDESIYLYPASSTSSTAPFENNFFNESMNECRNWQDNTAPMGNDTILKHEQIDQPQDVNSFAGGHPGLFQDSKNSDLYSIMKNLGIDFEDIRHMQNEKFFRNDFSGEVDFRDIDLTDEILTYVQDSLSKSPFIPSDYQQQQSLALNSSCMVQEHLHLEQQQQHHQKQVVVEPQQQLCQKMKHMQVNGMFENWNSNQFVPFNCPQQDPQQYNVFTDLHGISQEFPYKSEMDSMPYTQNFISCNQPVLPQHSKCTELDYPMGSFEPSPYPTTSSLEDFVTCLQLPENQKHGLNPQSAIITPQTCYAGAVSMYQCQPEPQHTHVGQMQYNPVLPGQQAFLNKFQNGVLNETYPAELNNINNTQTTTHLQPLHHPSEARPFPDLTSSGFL

## CC(=O)c1ccc(NC(=O)c2ccc(COc3ccccc3[N+](=O)[O-])o2)cc1
[1]
  IC50: > 29.9 µM (inactive)
[2]
  EC50: > 29.9 µM (inactive)

## Cc1cc(C)nc(N2N=C(C(C)(C)C)CC2=O)n1
[3]
  IC50: 12.1 µM (active)
[4]
  IC50: 8.2 µM (active)
[5]
  AC50: 14.9 µM (active)
[6]
  EC50: 10.9 µM (active)

## Cc1cc(C(=O)NCc2ccccc2F)c2ccccc2n1
[7]
  IC50: 17.9 µM (active)
[8]
  IC50: 10.8 µM (active)

## CC(=O)Oc1ccc2oc(/C=C/N(C)C)c([N+](=O)[O-])c2c1
[9]
  IC50: 56.8 µM (inactive)

## COc1cc2c3nnc(-c4ccc(F)cc4)c-3cn(Cc3ccc(C)cc3)c2cc1OC
[10]
  EC50: 2.4 µM (active)
[11]
  EC50: 17.3 µM (active)
[12]
  EC50: 1.1 µM (inconclusive)
[13]
  EC50: 2.2 µM (inconclusive)
[14]
  EC50: 10.4 µM (active)
[15]
  IC50: 70 µM (inactive)
[16]
  EC50: 4.86 µM (active)
[17]
  EC50: 5.16 µM (inconclusive)

## Cc1ccc(S(=O)(=O)N2C[C@H]3n4c(=O)ccc(=O)n4C[C@H](OC(=O)Nc4cccs4)[C@@]3(O)C2)cc1
[18]
  IC50: 14.6 µM (inactive)

## O=C(c1ccoc1)N1CCN(c2cc(-c3ccccc3)nc3cc(-c4ccc(Br)cc4)nn23)CC1
[19]
  EC50: 0.6 µM (active)
[20]
  EC50: 1.06 µM (active)

## COc1ccc(CNC(=O)c2cccc3c(-c4ccc(F)c(F)c4)coc23)cc1OC
[21]
  IC50: 4.63 µM (active)

## CCNC(=O)C[C@H]1CC[C@@H]2[C@H](COC[C@H](O)CN2Cc2ccc(Cl)c(Cl)c2)O1
[22]
  AC50: 36.8 µM (active)

## C=C1CCCC2OC(CC3=CC4/C(C)=C/CC(C)CC(/C=C(\C)C(O)C5CC(O)C(O)C(CCC(O)/C=C/C(C)=C/CCC6=NCCC(C3)C64C)O5)OC(=O)CC3OC(C(O)C1)C(O)C3O)CC(O)C2O (stereo not drawn)
[23]
  IC50: > 67.5 µM (inactive)
[24]
  IC50: > 67.5 µM (inactive)

## O=C(C1CCCC1)N1CCCCN2[C@@H](CO)[C@H](c3ccc(-c4cccc(F)c4)cc3)[C@@H]2C1
[25]
  AC50: 0.121 µM (active)

## CC(=O)N1CCN(c2ccc(OC[C@H]3CO[C@](Cn4ccnc4)(c4ccc(Cl)cc4Cl)O3)cc2)CC1 [KETOCONAZOLE]
[26]
  CC50: > 40 µM (active)
[27]
  AC50: 0.435 µM (active)
[28]
  AC50: 44.7 µM (inconclusive)

Source: ChEMBL document CHEMBL1201862, “PubChem BioAssay data set” (2004)
